Molecules are shown by their SMILES.

We go through two compounds from US11261498B2, “Methods for diagnosing and treating cancer” (priority 2011, dated 2022).

For one experiment, the system named is NSCLC. Conditions: phase III, first-line, in combination with standard chemotherapy; cited from earlier work.
The next experiment concerns NSCLC cell lines. The experiment can be described thus: Erlotinib sensitivity (IC50, Celltiter-Glo cell viability) of NSCLC cell lines versus ERBB2 methylation. The class given is cell-based. The note with it: in vitro, 72 hrs, 3 nM TGFα, IC50 values only in FIG. 5. Here is the method:
After 72 hrs, cell viability was measured using the Celltiter-Glo Luminescent Cell Viability Assay (Promega).
(In general: In ATP-based viability assays light output follows the ATP content of the culture.)

For the next experiment, the system named is pancreatic cancer. Conditions: phase III, first-line, in combination with gemcitabine; cited from earlier work.
For experiment [1], the system named is advanced, treatment-refractory NSCLC. The note with it: phase III, monotherapy, patients with advanced; cited from earlier work.

With `C#Cc1cccc(Nc2ncnc3cc(OCCOC)c(OCCOC)cc23)c1` [erlotinib, [6,7-bis(2-methoxyethoxy)-4-quinazolin-4-yl]-(3-ethynylphenyl) amine], the survival entry in the experiment on NSCLC is listed as “did not improve survival”. Moreover, the “correlation of ERBB2 hypomethylation with erlotinib sensitivity” value in the experiment with NSCLC cell lines is “strongly correlated”. For the same compound, the survival result in the experiment with pancreatic cancer was “did improve survival”. Besides, in experiment [1], the disease progression entry is “delayed disease progression”, the survival result is recorded as “significantly prolonged survival” and the “worsening of lung cancer-related symptoms” value is given as “delayed worsening of lung cancer-related symptoms”.
`COc1cc2ncnc(Nc3ccc(F)c(Cl)c3)c2cc1OCCCN1CCOCC1` [gefitinib]: in the experiment on NSCLC, the survival result is recorded as “did not improve survival”.
